In ChEMBL document CHEMBL5543158, “Design of Evodiamine-Glucose Conjugates with Improved In Vivo Antitumor Activity” (J Med Chem, 2024):
Converted amounts (≈) assume the structure as drawn.

Experiments:
[1] = Solubility of the compound in double distilled water measured upto 30 mins by UV-vis spectrophotometry; assay type: physicochemical
[2] = system: U-87 MG; test: Antiproliferative activity against human U-87 MG cells measured after 72 hrs by CCK-8 cells; assay type: functional, cell-based, U-87MG ATCC
[3] = system: A549; test: Antiproliferative activity against human A549 cells measured after 72 hrs by CCK-8 cells; assay type: functional, cell-based; settings: A549, 72 h
[4] = system: HCT-116; test: Antiproliferative activity against human HCT116 cells measured after 72 hrs by CCK-8 cells; assay type: functional, cell-based; settings: HCT-116, 72 h
[5] = system: HCT-116; test: Antiproliferative activity against human HCT116 cells in presence of 5 uM phloretin measured after 72 hrs by CCK-8 assay; assay type: functional, cell-based; settings: HCT-116, 72 h
[6] = system: HCT-116; test: Antiproliferative activity against human HCT116 cells in presence of 10 uM phloretin measured after 72 hrs by CCK-8 assay; assay type: functional, cell-based; settings: HCT-116, 72 h
[7] = Cytotoxicity against HUVEC after 72 hrs by CCK-8 assay; assay type: toxicity, cell-based; settings: human, HUVEC cells
[8] = system: HCT-116; test: In vivo antitumor effect in human HCT-116 cells xenografted mouse model assessed as tumor growth inhibition at 5 mg/kg, ip twice a day administered 21 consecutive days; assay type: functional; settings: read-out: TGI
[9] = Toxicity in mouse xenografted with human HCT-116 cells assessed as organ damage by measuring change in heart at 5 mg/kg, ip twice a day administered 21 consecutive days; assay type: organism-based; settings: in vivo
[10] = Toxicity in mouse xenografted with human HCT-116 cells assessed as liver damage by measuring enlarged sizes of vacuole at 5 mg/kg, ip twice a day administered 21 consecutive days; assay type: organism-based; settings: in vivo
[11] = Toxicity in mouse xenografted with human HCT-116 cells assessed as organ damage by measuring change in spleen at 5 mg/kg, ip twice a day administered 21 consecutive days; assay type: organism-based; settings: in vivo
[12] = Toxicity in mouse xenografted with human HCT-116 cells assessed as organ damage by measuring thickened alveolar wall in lungs at 5 mg/kg, ip twice a day administered 21 consecutive days; assay type: organism-based; settings: in vivo
[13] = Toxicity in mouse xenografted with human HCT-116 cells assessed as kidney damage by measuring atrophy of glomeruli at 5 mg/kg, ip twice a day administered 21 consecutive days; assay type: organism-based; settings: in vivo

| solubility at 0.5 h [1] | IC50 [2] | IC50 [3] | IC50 [4] | IC50 [5] | IC50 [6] | Structure (SMILES) | IC50 at 72 h [7] | inhibition in vivo at 5 mg/kg [8] | Activity [9] | Activity [10] | Activity [11] | Activity [12] | Activity [13] |
| --- | --- | --- | --- | --- | --- | --- | --- | --- | --- | --- | --- | --- | --- |
| 2470 µg/mL (≈ 3.68 mM) | 54 nM | 54 nM | 54 nM | – | – | CN1c2ccc(F)cc2C(=O)N2CCc3c([nH]c4ccc(OC(=O)CCCC(=O)NCCCO[C@@H]5O[C@H](CO)[C@@H](O)[C@H](O)[C@H]5O)cc34)[C@H]21 | – | – | – | – | – | – | – |
| 145 µg/mL (≈ 0.43 mM) | – | – | – | 54 nM | 545 nM | CN1c2ccc(F)cc2C(=O)N2CCc3c([nH]c4ccc(O)cc34)[C@H]21 | 16 nM | 51% | Toxic | Toxic | Toxic | Toxic | Toxic |
| 2020 µg/mL (≈ 3.16 mM) | – | – | – | – | – | CN1c2ccc(F)cc2C(=O)N2CCc3c([nH]c4ccc(OCc5cn(CCCO[C@@H]6O[C@H](CO)[C@@H](O)[C@H](O)[C@H]6O)nn5)cc34)[C@H]21 | – | – | – | – | – | – | – |
